Reference: patent US9011863B2, “Combinations of kinase inhibitors for the treatment of cancer” (Exelixis, Inc., priority 2010, dated 2015)

How the values were obtained:
[1] = tested on: HER3, pHER3^Y1289, pAKT^S473; experiment: immunohistochemistry of BT474 xenografts; assay type: in vivo, mice; conditions: day 28
Method: FIG. 18B depicts photomicrographs of immunohistochemistry sections from formalin-fixed, paraffin-embedded tumor blocks. Xenografts were harvested on day 28, 1 hour after the last dose of lapatinib and/or compound A. Antibodies used were against HER3, pHER3^Y1289, and pAKT^S473. Photographs were taken at 400× magnification (scale bar: 50 μm).
All tumor samples (collected within 1 hour of last treatment) were fixed in 10% neutral buffered formalin for 24 hours at room temperature, followed by dehydration and paraffin embedding. Immunostaining was done on 5-μm tissue sections. After deparaffinization in xylene and graded alcohols heat-induced antigen retrieval was performed in a pH 6.0 citrate buffer followed by incubation with 3% hydrogen peroxide for 20 minutes, with protein block (Dako) for 10 minutes, and finally with primary antibody overnight at 4° C. The Envision Visualization System (Dako, Carpinteria, Calif., USA) was used, followed by DAB as chromagen and counterstained with hematoxylin. Tumor sections were studied on a light microscope with an ocular magnification of 400 times. Average percentage and intensity of tumor cell staining was calculated as a histoscore (H-score) (as described in Goulding, H., et al. (1995), Hum. Pathol. 26:291-294, which is incorporated herein by reference in its entirety). An expert pathologist (MGK) scoring the sections was blinded to the type of treatment.
Using immunohistochemistry (IHC), experiments were performed to examine pharmacodynamic biomarkers of target inactivation in xenografts after 28 days of treatment. […] Therefore, experiments were performed to quantify differences in pAKT^S473 expression in both cytoplasmic and nuclear compartments in xenograft sections.

[2] = molecular target: p110α catalytic subunit of PI3K (Homo sapiens, UniProt P42336); experiment: in vitro PI3K assay (PI3K-induced ATP consumption); assay type: biochemical; conditions: read-out: in vitro IC50 against p110α
Chain of p110α catalytic subunit of PI3K (P42336 whole entry): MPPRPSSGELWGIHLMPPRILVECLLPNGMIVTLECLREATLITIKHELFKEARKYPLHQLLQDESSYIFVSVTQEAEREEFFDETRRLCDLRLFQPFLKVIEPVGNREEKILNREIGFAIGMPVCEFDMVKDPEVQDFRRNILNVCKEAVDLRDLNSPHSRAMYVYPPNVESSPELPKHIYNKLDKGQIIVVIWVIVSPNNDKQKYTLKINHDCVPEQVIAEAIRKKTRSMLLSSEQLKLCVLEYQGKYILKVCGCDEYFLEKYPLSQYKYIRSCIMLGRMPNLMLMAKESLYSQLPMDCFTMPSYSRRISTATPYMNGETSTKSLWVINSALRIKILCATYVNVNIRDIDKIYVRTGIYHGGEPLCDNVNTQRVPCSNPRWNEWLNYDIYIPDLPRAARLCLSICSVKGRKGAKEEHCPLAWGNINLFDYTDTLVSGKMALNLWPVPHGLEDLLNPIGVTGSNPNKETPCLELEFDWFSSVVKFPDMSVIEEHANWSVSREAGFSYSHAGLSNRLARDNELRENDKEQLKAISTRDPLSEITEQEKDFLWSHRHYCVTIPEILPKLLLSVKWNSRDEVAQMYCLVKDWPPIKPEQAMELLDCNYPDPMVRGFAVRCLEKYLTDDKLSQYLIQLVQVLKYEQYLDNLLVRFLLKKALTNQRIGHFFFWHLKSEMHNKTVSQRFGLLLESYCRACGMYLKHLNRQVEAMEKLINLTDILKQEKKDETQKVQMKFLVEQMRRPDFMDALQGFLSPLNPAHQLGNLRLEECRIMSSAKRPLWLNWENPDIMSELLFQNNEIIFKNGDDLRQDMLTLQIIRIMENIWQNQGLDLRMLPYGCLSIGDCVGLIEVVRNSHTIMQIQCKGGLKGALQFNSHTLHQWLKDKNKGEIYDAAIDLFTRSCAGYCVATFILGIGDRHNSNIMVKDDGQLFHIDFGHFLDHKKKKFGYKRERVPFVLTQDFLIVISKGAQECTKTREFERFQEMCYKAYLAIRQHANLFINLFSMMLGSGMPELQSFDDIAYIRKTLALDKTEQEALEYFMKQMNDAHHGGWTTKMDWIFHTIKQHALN
Chain of p110α catalytic subunit of PI3K (P27986 whole entry partner): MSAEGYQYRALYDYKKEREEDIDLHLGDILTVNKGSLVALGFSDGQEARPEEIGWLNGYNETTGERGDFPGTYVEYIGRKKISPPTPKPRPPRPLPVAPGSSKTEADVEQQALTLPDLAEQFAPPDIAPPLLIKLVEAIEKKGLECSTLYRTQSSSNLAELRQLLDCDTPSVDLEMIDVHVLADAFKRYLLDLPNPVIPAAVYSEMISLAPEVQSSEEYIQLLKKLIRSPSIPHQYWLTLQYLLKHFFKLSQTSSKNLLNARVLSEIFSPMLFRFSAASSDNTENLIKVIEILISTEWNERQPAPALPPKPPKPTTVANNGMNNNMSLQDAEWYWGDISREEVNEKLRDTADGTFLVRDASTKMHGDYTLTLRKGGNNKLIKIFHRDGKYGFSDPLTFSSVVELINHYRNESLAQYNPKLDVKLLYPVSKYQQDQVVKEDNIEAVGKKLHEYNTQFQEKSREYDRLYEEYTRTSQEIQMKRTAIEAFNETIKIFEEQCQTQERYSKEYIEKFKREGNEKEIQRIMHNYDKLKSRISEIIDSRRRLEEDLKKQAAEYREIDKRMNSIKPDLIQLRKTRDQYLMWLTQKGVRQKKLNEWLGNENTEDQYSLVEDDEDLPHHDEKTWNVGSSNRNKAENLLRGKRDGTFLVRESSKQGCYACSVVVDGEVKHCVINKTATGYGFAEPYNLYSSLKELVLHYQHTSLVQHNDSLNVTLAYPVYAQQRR
From the text: Compounds of formula I have been tested using the assay described in Biological Example 1 of WO2007044729 and have been determined to be PI3K inhibitors. As such, compounds of formula I are useful for treating diseases, particularly cancer in which PI3K activity contributes to the pathology and/or symptomatology of the disease. For example, cancer in which PI3K activity contributes to its pathology and/or symptomatology include breast cancer, colon cancer, rectal cancer, endometrial cancer, gastric carcinoma, glioblastoma, hepatocellular carcinoma, small cell lung cancer, non-small cell lung cancer, melanoma, ovarian cancer, pancreatic cancer, prostate carcinoma, acute myelogenous leukemia (AML), chronic myelogenous leukemia (CML), and thyroid carcinoma, and the like.
Suitable in vitro assays for measuring PI3K activity and the inhibition thereof by compounds are known. Typically, the assay will measure PI3K-induced ATP consumption. […] Cellular activity can be determined using assays as described in Biological Examples 2, 3, and 4 of WO2007044729. […]
The purpose of the present study is to identify kinases and kinase-regulated signaling pathways that compensate for PI3K inhibition in human breast cancer cells. […] Gene expression from three independent experiments was measured using the Gene titan 3′ microarray. *, p<0.05; **, p<0.01 versus 0 hours, as shown in FIG. 5. […]

[3] = tested on: FoxO1 and FoxO3a; experiment: cytoplasmic and nuclear fractionation, FoxO immunoblot; assay type: cell-based, human; conditions: BT474 and MDA453; 6 μM compound A or 2 μM 5J8; 4 hours
Method: Nuclear (Nu) and cytoplasmic (Cy) extracts were isolated and subjected to immunoblotting with FoxO1 and FoxO3a antibodies. Loading controls for Nu: HDAC3; for Cy: RhoA (BT474) and MEK1/2 (MDA453).
Cytoplasmic and nuclear extracts were prepared using the Nuclear Extract Kit from Active Motif. Briefly, cells were plated in 100-mm dishes, treated with inhibitors at the indicated concentrations for 3-4 hours, washed with ice-cold PBS/phosphatase inhibitors, lysed in hypotonic buffer and centrifuged for 30 seconds at 14,000 rpm at 4° C. to collect the supernatant (cytoplasmic extract). The pellet (nuclear fraction) was resuspended in complete lysis buffer and centrifuged for 10 minutes at 14,000 rpm at 4° C. to collect the supernatant (nuclear fraction).

[4] = tested on: human breast cancer cell lines; experiment: cell proliferation (cell counting) and crystal violet assays; assay type: cell-based
Method: Cells were seeded in 12-well plates at a density of 2.5-3.5×10^4 cells/well in medium containing 2.5% FBS±inhibitors. Media and inhibitors were replaced every 3 days. On the days indicated in figures, cells were trypsinized and counted in a Beckman Coulter counter. For crystal violet assay, 5×10^4 cells/well were seeded in 6-well plates and grown in absence or presence of compound A for 6 days, fixed in methanol, stained with crystal violet, and photographed using an Olympus DP10 camera.
A panel of breast cancer cell lines with dysregulated PI3K activity was treated with increasing doses of compound A under two- and three-dimensional (2D and 3D) growth conditions. All experiments were conducted in 2.5% FBS-containing media, unless otherwise stated. […] This was further confirmed by immunoblot analysis of biomarkers of cell death and G1-S cell cycle transition in lysates from cells treated for 24 hours with compound A as shown in FIG. 10B.

COc1ccc(Cl)c(Nc2nc3ccccc3nc2NS(=O)(=O)c2cccc(NC(=O)C(C)(C)N)c2)c1 [Compound A]
nuclear pAKT^S473 by IHC [1]: statistically inhibited nuclear pAKT levels | pHER3 by IHC [1]: did not reduce membrane pHER3 | IC50 [2]: 0.039 µM | subcellular distribution of FoxO1 and FoxO3a [3]: accumulation of both FoxO factors in the nucleus of BT474 and MDA453 cells | cell number below baseline ([4]; 20 μM): induced cell death | IC50 ([4]; Homo sapiens, panel of breast cancer cell lines, 2.5% FBS, read-out: IC50 of cell growth (2D)): ~6 µM | 2D growth ([4]; panel of breast cancer cell lines, increasing doses): inhibited the 2D growth of all cell lines in a dose-dependent manner
